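48-hour exposure; five concentrations; linearly interpolated endpoints. GI50 marks 50% less growth. At the TGI there is no net growth.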
Key:
Assay in all cases: DTP human tumour cell line panel, 48 h
SNB-75 CNS = system: SNB-75 CNS
K-562 leukemia = system: K-562 leukemia
OVCAR-5 ovarian = system: OVCAR-5 ovarian
OVCAR-4 ovarian = system: OVCAR-4 ovarian
EKVX NSCLC = system: EKVX NSCLC
HCC-2998 colon = system: HCC-2998 colon
NCI-H460 lung = system: NCI-H460 lung
A549 NSCLC = system: A549 NSCLC
DU-145 prostate = system: DU-145 prostate
MDA-MB-435 = system: MDA-MB-435

CN1C(=O)CC(CC(=O)C2CCCCC2=O)CC1=O (stereo unspecified)
TGI (SNB-75 CNS): > 100 µM
TGI (K-562 leukemia): > 100 µM
TGI (OVCAR-5 ovarian): > 100 µM
TGI (OVCAR-4 ovarian): > 100 µM
TGI (EKVX NSCLC): > 100 µM
TGI (HCC-2998 colon): > 100 µM
TGI (NCI-H460 lung): > 100 µM
TGI (A549 NSCLC): > 100 µM

Cc1cc(S(=O)(=O)Nc2nc3ccccc3s2)c(SCc2ccccc2)cc1Cl
GI50 (DU-145 prostate): 15.5 µM
TGI (DU-145 prostate): 36.9 µM
GI50 (K-562 leukemia): 15.6 µM
TGI (K-562 leukemia): > 100 µM
GI50 (OVCAR-5 ovarian): 18.8 µM
TGI (OVCAR-5 ovarian): 36.7 µM
GI50 (OVCAR-4 ovarian): 13.2 µM
TGI (OVCAR-4 ovarian): 51.8 µM
GI50 (EKVX NSCLC): 13.2 µM
TGI (EKVX NSCLC): 49.2 µM
GI50 (MDA-MB-435): 15.7 µM
TGI (MDA-MB-435): 31.7 µM
GI50 (HCC-2998 colon): 13.8 µM
TGI (HCC-2998 colon): 26.7 µM
GI50 (NCI-H460 lung): 21.4 µM
TGI (NCI-H460 lung): > 100 µM
GI50 (A549 NSCLC): 13.9 µM
TGI (A549 NSCLC): 31.8 µM

Nc1[nH]c(=S)[nH]c(=O)c1N=Nc1c(Br)cc(S(N)(=O)=O)cc1Br
TGI (SNB-75 CNS): > 100 µM
TGI (DU-145 prostate): > 100 µM
TGI (K-562 leukemia): > 100 µM
TGI (OVCAR-5 ovarian): > 100 µM
TGI (OVCAR-4 ovarian): > 100 µM
TGI (EKVX NSCLC): > 100 µM
TGI (MDA-MB-435): > 100 µM
TGI (NCI-H460 lung): > 100 µM
TGI (A549 NSCLC): > 100 µM

CCN(Cc1c(F)cccc1C(F)(F)F)c1ccc(CO)c(Cl)c1
GI50 (SNB-75 CNS): 12.5 µM
TGI (SNB-75 CNS): 26.4 µM
GI50 (DU-145 prostate): 15.9 µM
TGI (DU-145 prostate): 29.8 µM
GI50 (K-562 leukemia): 0.692 µM
TGI (K-562 leukemia): 13 µM
GI50 (OVCAR-5 ovarian): < 0.0249 µM
TGI (OVCAR-5 ovarian): 0.205 µM
GI50 (OVCAR-4 ovarian): 0.132 µM
TGI (OVCAR-4 ovarian): 9.9 µM
GI50 (MDA-MB-435): 14.2 µM
TGI (MDA-MB-435): 28.3 µM
GI50 (HCC-2998 colon): 16.7 µM
TGI (HCC-2998 colon): 33 µM
GI50 (NCI-H460 lung): 0.0894 µM
TGI (NCI-H460 lung): 17.2 µM
GI50 (A549 NSCLC): 5.56 µM
TGI (A549 NSCLC): 23.1 µM

COc1ccc(NC(=O)CC2SC(=Nc3ccc(Cl)cc3C)NC2=O)c([N+](=O)[O-])c1 (stereo unspecified)
TGI (SNB-75 CNS): > 100 µM
TGI (K-562 leukemia): > 100 µM
TGI (OVCAR-5 ovarian): > 100 µM
TGI (OVCAR-4 ovarian): > 100 µM
TGI (EKVX NSCLC): > 100 µM
TGI (HCC-2998 colon): > 100 µM
TGI (NCI-H460 lung): > 100 µM
TGI (A549 NSCLC): > 100 µM

Cc1c(-c2c(F)cc(C(N)=O)c3[nH]c4c(c23)CC[C@H](C(C)(C)O)C4)cccc1-n1c(=O)c2cccc(F)c2n(C)c1=O
GI50 (DU-145 prostate): 5.63 µM
TGI (DU-145 prostate): > 100 µM
GI50 (K-562 leukemia): 3.61 µM
TGI (K-562 leukemia): > 100 µM
GI50 (OVCAR-5 ovarian): 2.83 µM
TGI (OVCAR-5 ovarian): > 100 µM
GI50 (OVCAR-4 ovarian): 6.31 µM
TGI (OVCAR-4 ovarian): > 100 µM
GI50 (EKVX NSCLC): 1.95 µM
TGI (EKVX NSCLC): > 100 µM
GI50 (MDA-MB-435): 3.81 µM
TGI (MDA-MB-435): > 100 µM
GI50 (HCC-2998 colon): 2.81 µM
TGI (HCC-2998 colon): 51.5 µM
GI50 (NCI-H460 lung): 3.43 µM
TGI (NCI-H460 lung): > 100 µM
GI50 (A549 NSCLC): 2.05 µM
TGI (A549 NSCLC): > 100 µM

CCCCCCCCCCCCCC(=O)OCC1OC(=O)C(O)C1O (stereo unspecified)
TGI (SNB-75 CNS): > 100 µM
TGI (K-562 leukemia): > 100 µM
TGI (OVCAR-5 ovarian): > 100 µM
TGI (OVCAR-4 ovarian): > 100 µM
TGI (EKVX NSCLC): > 100 µM
TGI (HCC-2998 colon): > 100 µM
TGI (A549 NSCLC): > 100 µM

COC(=O)/C(=C1\OC(=O)C(c2ccc(Cl)cc2)=C1O)c1ccc(Cl)cc1
TGI (SNB-75 CNS): 73 µM
TGI (K-562 leukemia): 86.9 µM
TGI (OVCAR-5 ovarian): 79.5 µM
TGI (OVCAR-4 ovarian): > 100 µM
TGI (EKVX NSCLC): 72.5 µM
TGI (HCC-2998 colon): 86.5 µM
TGI (NCI-H460 lung): 92.4 µM
TGI (A549 NSCLC): 84.3 µM

O=C1/C(=C/c2ccc(C(=O)O)cc2)CNC/C1=C\c1ccc(C(=O)O)cc1
TGI (SNB-75 CNS): > 100 µM
TGI (K-562 leukemia): > 100 µM
TGI (OVCAR-5 ovarian): > 100 µM
TGI (OVCAR-4 ovarian): > 100 µM
TGI (HCC-2998 colon): > 100 µM
TGI (NCI-H460 lung): > 100 µM
TGI (A549 NSCLC): > 100 µM

COc1cc(OC)c(OC)cc1/C=C/c1ccc2ccccc2n1
TGI (SNB-75 CNS): > 10 µM
TGI (DU-145 prostate): > 10 µM
TGI (K-562 leukemia): > 10 µM
TGI (OVCAR-5 ovarian): > 10 µM
TGI (OVCAR-4 ovarian): > 10 µM
TGI (MDA-MB-435): > 10 µM
TGI (HCC-2998 colon): > 10 µM
TGI (A549 NSCLC): > 10 µM

O=S1c2ccccc2N=C(c2cccs2)CC1c1ccccc1O (stereo unspecified)
TGI (SNB-75 CNS): > 100 µM
TGI (K-562 leukemia): > 100 µM
TGI (OVCAR-5 ovarian): > 100 µM
TGI (OVCAR-4 ovarian): > 100 µM
TGI (EKVX NSCLC): > 100 µM
TGI (HCC-2998 colon): > 100 µM
TGI (NCI-H460 lung): > 100 µM
TGI (A549 NSCLC): > 100 µM

C/C(COc1ccccc1)=N\NC(N)=S
TGI (SNB-75 CNS): > 100 µM
TGI (K-562 leukemia): > 100 µM
TGI (OVCAR-5 ovarian): > 100 µM
TGI (OVCAR-4 ovarian): > 100 µM
TGI (EKVX NSCLC): > 100 µM
TGI (HCC-2998 colon): > 100 µM
TGI (A549 NSCLC): > 100 µM

Oc1ccc(Cl)cc1N=Nc1c(O)ccc2ccccc12
TGI (SNB-75 CNS): > 100 µM
TGI (K-562 leukemia): > 100 µM
TGI (OVCAR-5 ovarian): > 100 µM
TGI (OVCAR-4 ovarian): > 100 µM
TGI (EKVX NSCLC): > 100 µM
TGI (MDA-MB-435): > 100 µM
TGI (A549 NSCLC): > 100 µM

O=C(Nc1c(Cl)cccc1Cl)Oc1cccc2cccnc12
GI50 (SNB-75 CNS): 13.5 µM
TGI (SNB-75 CNS): 53.6 µM
GI50 (DU-145 prostate): 11.7 µM
TGI (DU-145 prostate): > 100 µM
GI50 (K-562 leukemia): 4.52 µM
TGI (K-562 leukemia): > 100 µM
GI50 (OVCAR-5 ovarian): 5.01 µM
TGI (OVCAR-5 ovarian): > 100 µM
GI50 (OVCAR-4 ovarian): 2.9 µM
TGI (OVCAR-4 ovarian): 14 µM
GI50 (MDA-MB-435): 7.52 µM
TGI (MDA-MB-435): > 100 µM
GI50 (HCC-2998 colon): 5.82 µM
TGI (HCC-2998 colon): 24.6 µM
GI50 (NCI-H460 lung): 3.46 µM
TGI (NCI-H460 lung): 20.2 µM
GI50 (A549 NSCLC): 4.47 µM
TGI (A549 NSCLC): 40.2 µM

NC1=NN(c2ccccc2)C(=O)C1/C(=N\NC(=O)c1cc2ccccc2cc1O)C(=O)Nc1ccc(Cl)c(Cl)c1 (stereo unspecified)
TGI (SNB-75 CNS): > 100 µM
TGI (K-562 leukemia): > 100 µM
TGI (OVCAR-5 ovarian): > 100 µM
TGI (OVCAR-4 ovarian): > 100 µM
TGI (EKVX NSCLC): 63.6 µM
TGI (HCC-2998 colon): > 100 µM
TGI (NCI-H460 lung): 85.5 µM
TGI (A549 NSCLC): > 100 µM

COc1ccc(C2CC(=O)Nc3c2c(C)nn3-c2nc3ccccc3[nH]2)cc1OC (stereo unspecified)
GI50 (SNB-75 CNS): 3.46 µM
TGI (SNB-75 CNS): > 56.1 µM
GI50 (DU-145 prostate): 6.87 µM
TGI (DU-145 prostate): 27.1 µM
GI50 (K-562 leukemia): 4.81 µM
TGI (K-562 leukemia): > 100 µM
GI50 (OVCAR-5 ovarian): 25.4 µM
TGI (OVCAR-5 ovarian): > 77.2 µM
GI50 (OVCAR-4 ovarian): 6.42 µM
TGI (OVCAR-4 ovarian): > 100 µM
GI50 (MDA-MB-435): 3.25 µM
TGI (MDA-MB-435): 18.3 µM
GI50 (HCC-2998 colon): 10.9 µM
TGI (HCC-2998 colon): 41.2 µM
GI50 (NCI-H460 lung): 3.46 µM
TGI (NCI-H460 lung): 16.2 µM
GI50 (A549 NSCLC): 3.82 µM
TGI (A549 NSCLC): 17.8 µM

CCN(CC(O)COc1ccc2c(c1)[n+]([O-])nc(N)[n+]2[O-])C(C)=O (stereo unspecified)
TGI (SNB-75 CNS): > 100 µM
TGI (DU-145 prostate): > 100 µM
TGI (K-562 leukemia): > 100 µM
TGI (OVCAR-5 ovarian): > 100 µM
TGI (OVCAR-4 ovarian): > 100 µM
TGI (EKVX NSCLC): > 100 µM
TGI (MDA-MB-435): > 100 µM
TGI (NCI-H460 lung): > 100 µM
TGI (A549 NSCLC): > 100 µM

Fc1ccc(Nc2ccnc(N3CCN(c4ccnc5cc(Cl)ccc45)CC3)n2)cc1
GI50 (SNB-75 CNS): 2.43 µM
TGI (SNB-75 CNS): > 100 µM
GI50 (DU-145 prostate): 3.96 µM
TGI (DU-145 prostate): 55.1 µM
GI50 (K-562 leukemia): 2.18 µM
TGI (K-562 leukemia): 6.62 µM
GI50 (OVCAR-5 ovarian): 3.82 µM
TGI (OVCAR-5 ovarian): > 100 µM
GI50 (OVCAR-4 ovarian): 2.36 µM
TGI (OVCAR-4 ovarian): > 100 µM
GI50 (MDA-MB-435): 1.93 µM
TGI (MDA-MB-435): 4.92 µM
GI50 (HCC-2998 colon): 3.4 µM
TGI (HCC-2998 colon): 13.7 µM
GI50 (NCI-H460 lung): 1.74 µM
TGI (NCI-H460 lung): 4.54 µM
GI50 (A549 NSCLC): 2.66 µM
TGI (A549 NSCLC): > 100 µM

S=C1NC(c2ccccc2)NC(c2ccccc2)S1 (stereo unspecified)
TGI (SNB-75 CNS): > 100 µM
TGI (DU-145 prostate): > 100 µM
TGI (K-562 leukemia): > 100 µM
TGI (OVCAR-5 ovarian): > 100 µM
TGI (OVCAR-4 ovarian): > 100 µM
TGI (EKVX NSCLC): > 100 µM
TGI (MDA-MB-435): > 100 µM
TGI (NCI-H460 lung): 63.3 µM
TGI (A549 NSCLC): > 100 µM

Reference: PubChem BioAssay (NCI)
